target: T1, Kir3.1/3.4 (Rattus norvegicus, UniProt P48548+P63251); test: Kir3.1/3.4 Electrophysiology Method (manual whole-cell patch clamp); format: cell-based; details: Electrophysiology Method (TABLE 1)
T1 construct: expressed in transfected cells
T1 sequence (P63251 1-501): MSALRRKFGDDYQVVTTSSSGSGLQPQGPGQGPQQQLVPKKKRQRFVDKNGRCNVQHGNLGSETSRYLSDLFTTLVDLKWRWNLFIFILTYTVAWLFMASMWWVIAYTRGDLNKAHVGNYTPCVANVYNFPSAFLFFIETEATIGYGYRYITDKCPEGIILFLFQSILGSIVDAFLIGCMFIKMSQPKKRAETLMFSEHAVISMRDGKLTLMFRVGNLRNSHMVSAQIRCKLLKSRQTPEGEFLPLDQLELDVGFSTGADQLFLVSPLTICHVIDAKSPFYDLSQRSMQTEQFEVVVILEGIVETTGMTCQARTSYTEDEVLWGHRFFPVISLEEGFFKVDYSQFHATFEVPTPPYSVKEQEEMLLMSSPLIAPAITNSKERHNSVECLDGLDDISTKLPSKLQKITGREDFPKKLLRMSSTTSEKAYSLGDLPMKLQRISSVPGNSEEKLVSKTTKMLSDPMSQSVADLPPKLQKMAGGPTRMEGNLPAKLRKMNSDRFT
T1 sequence (P48548 1-419): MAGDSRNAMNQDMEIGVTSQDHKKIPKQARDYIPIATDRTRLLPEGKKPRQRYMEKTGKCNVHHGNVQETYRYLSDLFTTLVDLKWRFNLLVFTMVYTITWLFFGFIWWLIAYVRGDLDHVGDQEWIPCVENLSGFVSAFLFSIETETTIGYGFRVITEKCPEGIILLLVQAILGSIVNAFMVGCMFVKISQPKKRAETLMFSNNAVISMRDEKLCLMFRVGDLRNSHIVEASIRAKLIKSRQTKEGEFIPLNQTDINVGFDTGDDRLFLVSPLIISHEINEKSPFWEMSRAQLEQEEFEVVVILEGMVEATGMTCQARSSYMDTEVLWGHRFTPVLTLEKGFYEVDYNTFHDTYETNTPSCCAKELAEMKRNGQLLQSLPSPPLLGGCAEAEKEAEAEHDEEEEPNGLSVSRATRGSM
Experimental: Compound activity against the recombinant G-protein activated inward rectifier current encoded by the heterotetramer Kir3.1/3.4 was assessed using manual whole-cell patch technique. The heterotetramer forms the pore-forming channel that conducts the acetylcholine/adenosine-activated potassium current in the heart.
For whole-cell patch-clamp studies, cells (Human Embryonic Kidney 293 stably transfected with rat Kir3.1/3.4) were seeded onto glass coverslips before recordings were made. Cells were seeded in sterile 30 mm Petri dishes at a density to enable isolated cells to be selected for patch clamp experiments. The dishes were stored in a humidified, gassed (5% CO2) incubator at 37° C. until use.
Whole-cell patch-clamp recordings of membrane currents were made following gigaohm seal formation between the patch electrode and the cell using HEKA EPC-9/10 amplifiers controlled by Pulse Software (Ver8.5x/8.6×/8.7×, HEKA, Germany). Coverslips seeded with cells were placed in a recording chamber mounted on the stage of an inverted microscope. During the experiment, the cell of interest was continuously superfused with bather solution delivered via a cannula placed in close proximity to the cell to enable control of the extracellular solution environment. Only those cells with a current <−500 pA (current at −140 mV) were used for experiments. During experiments, series resistance was compensated by a minimum of 70%.
Electrophysiology voltage-step protocols and analysis of data were performed as follows. Data was sampled at 5 kHz, and filtered with a −3 dB bandwidth of 2.5 kHz. Cells were held at a voltage of −60 mV. Currents were evoked by a depolarising voltage step to +60 mV (100 ms) before a ramp-repolarisation (0.4 V·s^−1) to −140 mV (100 ms) before returning to −60 mV. The command waveform was repeatedly applied every 10 s throughout the experiment. Mean currents during 1-99% of the time at −140 mV were analysed using Pulsefit software (v8.x, HEKA, Germany). The voltage protocol was repeatedly applied to achieve a stable current baseline in bather before the test substance was superfused via the cannula in close proximity to the cell under investigation. The test substance was allowed to equilibrate during which time voltage protocol was repeatedly applied and recorded. On reaching steady-state inhibition, the cell was superfused with an identical bather solution containing zero external potassium chloride (replaced by equimolar NaCl). The identical current measurement was made in the absence of potassium to assess the passive leak at −140 mV. The leak current was subtracted from the control and steady-state drug current values. The percentage inhibition of the leak-subtracted current in the presence of test substance was calculated relative to the control leak-subtracted pre-drug value. Internal patch-pipette solution contained in mM: 110 KCl, 20 NaCl, 0.9 GTPγS, 5 Mg-ATP, 5 EGTA, 10 HEPES, pH7.2 corrected with KOH. The external superfusate composition in mM was: 150 (or 160) NaCl, 10 (or 0) KCl, 3 CaCl2, 1 MgCl, 10 HEPES, pH 7.4 corrected with NaOH.

Compound | IC50 [nM]
5-phenyl-thieno[2,3-d]pyrimidine [Example 160] | < 500
5-phenyl-thieno[2,3-d]pyrimidine-2-carbonitrile [Example 338] | < 500
8-azabicyclo[3.2.1]octan-3-amine [Example 325] | < 500
Cc1csc2ncnc(N3CCC(COCCC4CCCN4C)CC3)c12 (stereo not shown) [Example 2, 5-methyl-4-[4-[2-(1-methylpyrrolidin-2-yl)ethoxymethyl]-1-piperidyl]thieno[2,3-d]pyrimidine] | 500 to 3000
CN1CCCC1CCOCC1CCN(c2ncnc3sccc23)CC1 (stereo not shown) [Example 3, 4-[4-[2-(1-methylpyrrolidin-2-yl)ethoxymethyl]-1-piperidyl]thieno[2,3-d]pyrimidine] | 3000 to 10000
c1ccc(-c2csc3ncnc(N4CCC(COCCN5CCCC5)CC4)c23)cc1 [Example 5, 5-phenyl-4-[4-(2-pyrrolidin-1-ylethoxymethyl)-1-piperidyl]thieno[2,3-d]pyrimidine] | < 500
CN1CCCC1COCC1CCN(c2ncnc3scc(-c4ccccc4)c23)CC1 (stereo not shown) [Example 7, 4-[4-[(1-methylpyrrolidin-2-yl)methoxymethyl]-1-piperidyl]-5-phenyl-thieno[2,3-d]pyrimidine] | < 500
c1ccc(-c2csc3ncnc(N4CCC(COC5CCC5)CC4)c23)cc1 [Example 9, 4-[4-(cyclobutoxymethyl)-1-piperidyl]-5-phenyl-thieno[2,3-d]pyrimidine] | < 500
CN(C)CCOCC1CCN(c2nc(N3CCC(C(N)=O)C3)nc3scc(-c4ccccc4)c23)CC1 (stereo not shown) [Example 14, 1-[4-[4-(2-dimethylaminoethyloxymethyl)-1-piperidyl]-5-phenyl-thieno[2,3-d]pyrimidin-2-yl]pyrrolidine-3-carboxamide] | < 500
CC(C)OCC1CCN(c2ncnc3scc(-c4ccccc4)c23)CC1 [Example 15, 4-[4-(isopropoxymethyl)-1-piperidyl]-5-phenyl-thieno[2,3-d]pyrimidine] | 500 to 3000
c1ccc(-c2csc3ncnc(N4CCC(COC5CCOC5)CC4)c23)cc1 (stereo not shown) [Example 16, 5-phenyl-4-[4-(tetrahydrofuran-3-yloxymethyl)-1-piperidyl]thieno[2,3-d]pyrimidine] | 500 to 3000
Fc1ccc(-c2csc3ncnc(N4CCC(COCCN5CCOCC5)CC4)c23)cc1 [Example 21, 4-[2-[[1-[5-(4-fluorophenyl)thieno[2,3-d]pyrimidin-4-yl]-4-piperidyl]methoxy]ethyl]morpholine] | < 500
CCc1c(C)sc2ncnc(N3CCC(COCCN4CCOCC4)CC3)c12 [Example 23, 4-[2-[[1-(5-ethyl-6-methyl-thieno[2,3-d]pyrimidin-4-yl)-4-piperidyl]methoxy]ethyl]morpholine] | < 500
CCc1c(C)sc2ncnc(N3CCC(COCCC4CCCN4C)CC3)c12 (stereo not shown) [Example 24, 5-ethyl-6-methyl-4-[4-[2-(1-methylpyrrolidin-2-yl)ethoxymethyl]-1-piperidyl]thieno[2,3-d]pyrimidine] | < 500
CC(C)c1cc2c(N3CCC(COCCC4CCCCN4C)CC3)ncnc2s1 (stereo not shown) [Example 25, 6-isopropyl-4-[4-[2-(1-methyl-2-piperidyl)ethoxymethyl]-1-piperidyl]thieno[2,3-d]pyrimidine] | < 500
O=C1CN(CCOCC2CCN(c3ncnc4scc(-c5ccccc5)c34)CC2)CCN1 [Example 28, 4-[2-[[1-(5-phenylthieno[2,3-d]pyrimidin-4-yl)-4-piperidyl]methoxy]ethyl]piperazin-2-one] | 500 to 3000
F[C@@H]1CCN(CCOCC2CCN(c3ncnc4scc(-c5ccccc5)c34)CC2)C1 [Example 32, 4-[4-[2-[(3R)-3-fluoropyrrolidin-1-yl]ethoxymethyl]-1-piperidyl]-5-phenyl-thieno[2,3-d]pyrimidine] | < 500
CN1CCCCC1CCOCC1CCN(c2ncnc3scc(-c4cccc(F)c4)c23)CC1 (stereo not shown) [Example 36, 5-(3-fluorophenyl)-4-[4-[2-(1-methyl-2-piperidyl)ethoxymethyl]-1-piperidyl]thieno[2,3-d]pyrimidine] | < 500
c1ccc(-c2csc3ncnc(N4CC5C(COCCN6CCOCC6)C5C4)c23)cc1 (stereo not shown) [Example 38, 4-[2-[[3-(5-phenylthieno[2,3-d]pyrimidin-4-yl)-3-azabicyclo[3.1.0]hexan-6-yl]methoxy]ethyl]morpholine] | 500 to 3000
CN(C)S(=O)(=O)c1ccc(-c2csc3ncnc(N4CCC(COCCN5CCCC5)CC4)c23)cc1 [Example 44, N,N-dimethyl-4-[4-[4-(2-pyrrolidin-1-ylethoxymethyl)-1-piperidyl]thieno[2,3-d]pyrimidin-5-yl]benzenesulfonamide] | 500 to 3000
NC(=O)[C@H]1CCCN1CCOCC1C2CN(c3ncnc4scc(-c5ccc(F)cc5)c34)CC12 (stereo partly drawn) [Example 45, (2R)-1-[2-[[3-[5-(4-fluorophenyl)thieno[2,3-d]pyrimidin-4-yl]-3-azabicyclo[3.1.0]hexan-6-yl]methoxy]ethyl]pyrrolidine-2-carboxamide] | < 500
O=[N+]([O-])c1ccc(-c2csc3ncnc(N4CCC(COCCN5CCCC5)CC4)c23)cc1 [Example 46, 5-(4-nitrophenyl)-4-[4-(2-pyrrolidin-1-ylethoxymethyl)-1-piperidyl]thieno[2,3-d]pyrimidine] | < 500
Fc1ccc(-c2csc3ncnc(N4CC5C(COCCN6CC[C@H](F)C6)C5C4)c23)cc1 (stereo partly drawn) [Example 47, 5-(4-fluorophenyl)-4-[6-[2-[(3S)-3-fluoropyrrolidin-1-yl]ethoxymethyl]-3-azabicyclo[3.1.0]hexan-3-yl]thieno[2,3-d]pyrimidine] | < 500
Fc1ccc(-c2csc3ncnc(N4CC5C(COCCN6CC7CC6CO7)C5C4)c23)cc1 (stereo not shown) [Example 48, 5-[2-[[3-[5-(4-fluorophenyl)thieno[2,3-d]pyrimidin-4-yl]-3-azabicyclo[3.1.0]hexan-6-yl]methoxy]ethyl]-2-oxa-5-azabicyclo[2.2.1]heptane] | < 500
c1ccc(-c2csc3ncnc(N4CCC(CNCC5CC5)CC4)c23)cc1 [Example 49, 1-cyclopropyl-N-[[1-(5-phenylthieno[2,3-d]pyrimidin-4-yl)-4-piperidyl]methyl]methanamine] | < 500
CC1CCN(CC2CCN(c3ncnc4scc(-c5ccccc5)c34)CC2)C1 (stereo not shown) [Example 50, 4-[4-[(3-methylpyrrolidin-1-yl)methyl]-1-piperidyl]-5-phenyl-thieno[2,3-d]pyrimidine] | 500 to 3000
CCCNCC1CCN(c2ncnc3scc(-c4ccccc4)c23)CC1 [Example 51, N-[[1-(5-phenylthieno[2,3-d]pyrimidin-4-yl)-4-piperidyl]methyl]propan-1-amine] | 500 to 3000
FC(F)CNCC1CCN(c2ncnc3scc(-c4ccccc4)c23)CC1 [Example 52, 2,2-difluoro-N-[[1-(5-phenylthieno[2,3-d]pyrimidin-4-yl)-4-piperidyl]methyl]ethanamine] | 500 to 3000

— patent US9290511B2, “Thieno-pyrimidines, useful as potassium channel inhibitors” (XENTION LIMITED, priority 2011, dated 2016)
